According to patent US20140357512A1, “HISTONE DEACETYLASE (HDAC) BIOMARKERS IN MULTIPLE MYELOMA” (priority 2013, published 2014):

Test system: human myeloma cell line MM.1S
Experiment: SILAC acetylated-lysine peptide profiling, HDAC inhibitor vs DMSO (light/heavy ratio)
Assay type: cell-based
Excerpt: An embodiment of the invention comprises utilizing the SILAC method in order to quantitate changes in protein expression between two or more populations of cells. The SILAC method is a technique based on mass spectrometry that detects differences in protein abundance among samples using non-radioactive isotopic labeling. The SILAC method is known in the art, and described in detail in Ong et al., “Stable Isotope Labeling by Amino Acids in Cell Culture, SILAC, as a Simple and Accurate Approach to Expression Proteomics”, Molecular & Cellular Proteomics, vol. 1, pp. 376-386 (2002), which is incorporated herein by reference in its entirety.
Briefly, the SILAC method involves growing two populations of cells in cell culture. The first population of cells is grown in growth media containing normal amino acids (“normal media”). The second population of cells is grown in media lacking a standard essential amino acid (such as lysine), but is then supplemented with a non-radioactive, isotopically labeled form of that essential amino acid (such as lysine labeled with ^13C atoms, rather than normal ^12C atoms), which is called “heavy media”. When the two populations of cells are each growing in the medium, they incorporate the amino acids into all of their proteins. The growth of cells maintained in the heavy media is no different from that in normal media. All peptides containing the heavy amino acids are heavier than their normal counterparts. The cells from each of the two populations of cells are lysed. The lysates from each of the two cell populations are then combined. The combined cell lysates are then analyzed by mass spectrometry. Pairs of chemically identical peptides of different stable isotope composition can be differentiated in a mass spectrometer due to their difference in mass. The ratio of peak intensities in the mass spectrum for such peptide pairs reflects the abundance ratio for the two proteins.
This example describes SILAC studies that were performed to compare the effects of three different HDAC inhibitors (Compound A, Compound B, and tubastatin A) to a control on a human multiple myeloma cell line. The HDAC inhibitors were also compared amongst themselves to determine differences in their effects.
A human myeloma cell line MM.1S was grown using either ^12C (light) or ^13C (heavy) lysine containing culture medium. The “heavy” cells were treated with DMSO as the control, and the “light” cells were treated with a single HDAC inhibitor at 37° C. for 6 hours. The heavy and light cells were lysed, and the lysates were mixed in 1:1 ratio and digested with the protease trypsin. The acetylated lysine containing peptides (due to the action of the HDAC inhibitor) in the digested peptide pool were captured by a non-specific anti-acetylated lysine antibody cocktail (the antibodies identify both light and heavy acetylated peptides), and subjected to mass spectrometry analysis in order to identify thousands of individual peptides.
Thousands of peptides were identified in pairs (^12C and ^13C) due to their known mass differences. The amino acid sequence and quantitative ratio (Light/Heavy) of a given peptide in two differentially treated cell lysates were then determined and annotated with their possible protein (gene) sources.
As stated above, three HDAC inhibitors (Compound A, Compound B, and Tubastatin A) were used. Thus, the SILAC method was performed three times, with a different HDAC inhibitor compared to a control each time. Accordingly, there are three pairs of quantitative data in the table below, i.e., Compound A:DMSO, Compound B:DMSO, and Tubastatin A:DMSO. A cut-off of 1.30 fold of change (increase or decrease) was then used to determine “changed” or “+” in the table, and any peptides with a fold of change less than 1.3 fold were determined to be “unchanged” or “0” in the table. Those peptides that were not identified were marked as “NA” in the table. […]

## O=C(CCCCCCNC(=O)c1cnc(N(c2ccccc2)c2ccccc2)nc1)NO [Compound A, 2-(diphenylamino)-N-(7-(hydroxyamino)-7-oxoheptyl)pyrimidine-5-carboxamide]
Histone H2B type 2-E [6], gene HIST2H2BE, drug:DMSO
  light to heavy ratio (L/H ratio), log 2 scale, acetylated peptide PEPAK(ac)SAPAPKK (SEQ ID NO: 795): 1.00
Histone H2B type 2-E [17:21], gene HIST2H2BE, drug:DMSO
  light to heavy ratio (L/H ratio), log 2 scale, acetylated peptide K(ac)AVTK(ac)AQK (SEQ ID NO: 794): 1.00
Histone H2B type 2-E [21:24], gene HIST2H2BE, inhibitor:DMSO
  light to heavy ratio (L/H ratio) of acetylated peptide AVTK(ac)AQK(ac)K (SEQ ID NO: 560): 0.40 log 2
Histone H3.2 [10:15], HIST2H3D, HIST2H3A, HIST2H3C, drug:DMSO
  light to heavy ratio (L/H ratio) of acetylated peptide K(ac)STGGK(ac)APR (SEQ ID NO: 310): 1.00 log 2
Histone H3.2 [19:24], gene HIST2H3D, HIST2H3A, HIST2H3C, drug:DMSO
  light to heavy ratio (L/H ratio), log 2 scale, acetylated peptide K(ac)QLATK(ac)AAR (SEQ ID NO: 796): 1.00
Histone H4 [6:9], HIST2H4B, HIST1H4C and other H4 genes, drug:DMSO
  light to heavy ratio (L/H ratio) of acetylated peptide GK(ac)GGK(ac)GLGK (SEQ ID NO: 311): 1.00 log 2
Histone H4 [13:17], HIST2H4B, HIST1H4C and other H4 genes, drug:DMSO
  light to heavy ratio (L/H ratio) of acetylated peptide GLGK(ac)GGAK(ac)R (SEQ ID NO: 312): 1.00 log 2
Histone H4 [13], HIST2H4B, HIST1H4C and other H4 genes, drug:DMSO
  light to heavy ratio (L/H ratio) of acetylated peptide GLGK(ac)GGAKR (SEQ ID NO: 313): 1.00 log 2
Hydroxymethylglutaryl-CoA lyase mitochondrial [48], HMGCL, drug:DMSO
  light to heavy ratio (L/H ratio) of acetylated peptide DGLQNEK(ac)NIVSTPVK (SEQ ID NO: 268): 0.45 log 2
Hydroxymethylglutaryl-CoA lyase mitochondrial [137], gene HMGCL, inhibitor:DMSO
  light to heavy ratio (L/H ratio) of acetylated peptide K(ac)[…] (SEQ ID NO: 594): 0.45 log 2
IGLV2-14, IGLC2 [208], log 2 scale, drug vs DMSO
  L/H ratio of acetylated peptide […](ac)SHR (SEQ ID NO: 56): 0.00
IGQGYLIK(ac)DGK (SEQ ID NO: 249), 60S ribosomal protein L3 [294], SNORD43, RPL3
  light to heavy ratio (L/H ratio) of acetylated peptide, log 2 scale: −0.44
IK(ac)[…] (SEQ ID NO: 480), Isoform 2 of Heat shock protein HSP 90-alpha [403], HSP90AA1
  L/H ratio of acetylated peptide: 0.39 log 2
IVQK(ac)[…] (SEQ ID NO: 489), Death-associated protein 1 [29], DAP
  L/H ratio of acetylated peptide: 1.00 log 2
Inactive hydroxysteroid dehydrogenase-like protein 1 [64], gene HSDL1, drug:DMSO
  light to heavy ratio (L/H ratio), log 2 scale, acetylated peptide ADLIK(ac)QYGR (SEQ ID NO: 798): 1.00
Integrin-linked protein kinase [426], gene ILK, drug:DMSO
  light to heavy ratio (L/H ratio), log 2 scale, acetylated peptide LMK(ac)ICMNEDPAK (SEQ ID NO: 800): 1.00
Isocitrate dehydrogenase [NADP] mitochondrial [180], gene IDH2, inhibitor:DMSO
  light to heavy ratio (L/H ratio) of acetylated peptide HAHGDQYK(ac)ATDFVADR (SEQ ID NO: 574): 0.42 log 2
Isocitrate dehydrogenase [NADP] mitochondrial [193], gene IDH2, inhibitor:DMSO
  light to heavy ratio (L/H ratio) of acetylated peptide AGTFK(ac)MVFTPK (SEQ ID NO: 606): 0.46 log 2
Isocitrate dehydrogenase [NADP] mitochondrial [282], gene IDH2, inhibitor:DMSO
  light to heavy ratio (L/H ratio) of acetylated peptide TDFDKNK(ac)IWYEHR (SEQ ID NO: 555): 0.40 log 2
Isoform 1 of 3-hydroxyisobutyryl-CoA hydrolase mitochondrial [353], gene HIBCH, inhibitor:DMSO
  light to heavy ratio (L/H ratio) of acetylated peptide AVLIDK(ac)DQSPK (SEQ ID NO: 577): 0.43 log 2
Isoform 1 of 26S proteasome non-ATPase regulatory subunit 1 [310], gene PSMD1, inhibitor:DMSO
  light to heavy ratio (L/H ratio) of acetylated peptide TSSAFVGK(ac)TPEASPEPK (SEQ ID NO: 598): 0.46 log 2
Isoform 1 of 39S ribosomal protein L47 mitochondrial [144], MRPL47, drug:DMSO
  light to heavy ratio (L/H ratio) of acetylated peptide […](ac)VVQER (SEQ ID NO: 318): 1.00 log 2
Isoform 1 of 40S ribosomal protein S24 [37], RPS24, drug:DMSO
  light to heavy ratio (L/H ratio) of acetylated peptide ATVPK(ac)TEIR (SEQ ID NO: 272): 0.47 log 2
Isoform 1 of 60S ribosomal protein L11 [85], gene RPL11, inhibitor:DMSO
  light to heavy ratio (L/H ratio) of acetylated peptide AEEILEK(ac)GLK (SEQ ID NO: 547): 0.39 log 2
Isoform 1 of 60S ribosomal protein L11 [159], RPL11, drug:DMSO
  light to heavy ratio (L/H ratio) of acetylated peptide ISK(ac)EEAMR (SEQ ID NO: 299): 0.84 log 2
Isoform 1 of ATP synthase subunit d mitochondrial [72], ATP5H, drug:DMSO
  light to heavy ratio (L/H ratio) of acetylated peptide AGLVDDFEK(ac)K (SEQ ID NO: 301): 0.86 log 2
Isoform 1 of ATP synthase subunit d mitochondrial [85], ATP5H, drug:DMSO
  light to heavy ratio (L/H ratio) of acetylated peptide VPVPEDK(ac)[…] (SEQ ID NO: 290): 0.66 log 2
Isoform 1 of Aurora kinase C [53], gene AURKC, inhibitor:DMSO
  light to heavy ratio (L/H ratio) of acetylated peptide GK(ac)FGNVYLAR (SEQ ID NO: 537): −0.39 log 2
Isoform 1 of Coatomer subunit alpha [81], gene COPA, inhibitor:DMSO
  light to heavy ratio (L/H ratio) of acetylated peptide VWNYK(ac)LR (SEQ ID NO: 593): 0.45 log 2
Isoform 1 of Cytoskeleton-associated protein 5 [438], CKAP5, drug:DMSO
  light to heavy ratio (L/H ratio) of acetylated peptide SLLK(ac)PFCAALLK (SEQ ID NO: 329): 0.00 log 2
Isoform 1 of DNA-binding protein A [96], gene CSDA, inhibitor:DMSO
  light to heavy ratio (L/H ratio) of acetylated peptide VLGTVK(ac)WFNVR (SEQ ID NO: 515): −0.57 log 2
Isoform 1 of Dedicator of cytokinesis protein 2 [738], gene DOCK2, inhibitor:DMSO
  light to heavy ratio (L/H ratio) of acetylated peptide TLK(ac)ALEYVFK (SEQ ID NO: 516): −0.57 log 2
Isoform 1 of Dolichyl-phosphate beta-glucosyltransferase [122], gene ALG5, drug:DMSO
  light to heavy ratio (L/H ratio), log 2 scale, acetylated peptide VAFK(ac)YCQK (SEQ ID NO: 775): 1.00
Isoform 1 of E3 UFM1-protein ligase 1 [614], gene UFL1, drug:DMSO
  light to heavy ratio (L/H ratio), log 2 scale, acetylated peptide ILSK(ac)LSEETK (SEQ ID NO: 759): 0.91
Isoform 1 of Fragile X mental retardation syndrome-related protein 1 [207], gene FXR1, drug:DMSO
  light to heavy ratio (L/H ratio), log 2 scale, acetylated peptide NEEATK(ac)HLECTK (SEQ ID NO: 785): 1.00
Isoform 1 of Heat shock cognate 71 kDa protein [601], gene HSPA8, inhibitor:DMSO
  light to heavy ratio (L/H ratio) of acetylated peptide ELEK(ac)VCNPIITK (SEQ ID NO: 612): 0.47 log 2
